Experimental data taken from patent US20120157388A1, “EXTERNAL COMPOSITION FOR SKIN” (Shiseido Company, Ltd., priority 2007, published 2012).

Assay: Stability evaluation of lotion (appearance and smell after storage)
Format: physicochemical
Settings: 50° C., one month
Procedure: For L-lysyl-β-alanine hydrochloride (Example 2), L-lysine (Comparative Example 6), and β-alanine (Comparative Example 7), the following external composition for skin was prepared, and the stability thereof was evaluated.
50 g each of Example 2, Comparative Example 6 and
Comparative Example 7 was placed in a 50 ml screw tube and capped. After storing them in a 50° C. incubator for one month, changes in appearance and smell were judged according to the following criteria.

With `NCCCC[C@H](N)C(=O)NCCC(=O)O` [L-lysyl-β-alanine] the “stability in appearance (in words)” value was “excellently stable” and the “stability in smell (in words)” value was “excellently stable”.
